Laboratory results: US20210137828A1, “Cannabidiol Sublingual Spray Formulations” (priority 2019, published 2021)

Legend:
[1] = Impurity stability of CBD sublingual spray formulation; assay type: physicochemical; parameters: unit not given here
Method: Stability data was established for formulations with 25 mg/spray, 0.2% sucralose, 0.4% strawberry flavor, and 10% ethanol in the presence of MCT oil. […] This can be extrapolated to assigning a one year expiration at room temperature for lipid based formulation. See Table 1 through 2 for stability data of impurities and assay.

[2] = test system: chronic inflammatory and neuropathic pain; conditions: rodents; cited from earlier work
[3] = test system: human experimental psychosis; conditions: cited from earlier work
[4] = test system: anxiety; conditions: patients with social anxiety disorder; cited from earlier work
[5] = test system: breast tumor cell lines; conditions: different breast tumor cell lines; cited from earlier work
[6] = test system: non-cancer cells; conditions: compared with breast tumor cell lines; cited from earlier work
[7] = test system: estrogen receptor-positive and estrogen receptor-negative breast cancer cells; conditions: cited from earlier work
[8] = test system: non-tumorigenic, mammary cells; conditions: at concentrations effective in tumor cells; cited from earlier work
[9] = 700 milligrams per day for 6 weeks; cited from earlier work
[10] = test system: toxin-induced vomiting; conditions: low doses; cited from earlier work
[11] = test system: incidence of diabetes; conditions: non-obese diabetic mice, cited from earlier work
[12] = test system: vascular damage, vascular hyperpermeability; conditions: high glucose environment, inflammation or induction of type 2 diabetes in animal models; cited from earlier work
[13] = test system: seizure frequency; conditions: cited from earlier work
[14] = test system: seizures; conditions: doses up to 25 milligrams per kilogram of body weight; cited from earlier work

C=C(C)[C@@H]1CCC(C)=C[C@H]1c1c(O)cc(CCCCC)cc1O [CBD, cannabidiol]
CBD peak (RRT 1.00) in impurity stability data ([1]; T = 0): 99.24 | CBD peak (RRT 1.00) in impurity stability data ([1]; T = 2wk 25 C.): 99.05 | CBD peak (RRT 1.00) in impurity stability data ([1]; T = 2wk 40 C.): 98.60 | CBD peak (RRT 1.00) in impurity stability data ([1]; T = 4wk 25 C.): 98.75 | CBD peak (RRT 1.00) in impurity stability data ([1]; T = 4wk 40 C.): 97.96 | Analgesic tolerance [2]: without causing analgesic tolerance | Suppression of chronic inflammatory and neuropathic pain [2]: significantly suppressed chronic inflammatory and neuropathic pain | Effect on human experimental psychosis [3]: prevents human experimental psychosis | Effect on anxiety [4]: reduce anxiety | Inhibition of growth of breast tumor cell lines [5]: potently and selectively inhibited the growth | Potency in non-cancer cells [6]: significantly less potency in non-cancer cells | Cell death of breast cancer cells [7]: induced a concentration-dependent cell death | Effect on non-tumorigenic mammary cells [8]: little effect | Overt toxicity in humans [9]: did not show any overt toxicity | Effect on toxin-induced vomiting [10]: suppresses toxin-induced vomiting | Incidence of diabetes ([11]; 86 percent in non-treated mice): 30% | Insulitis, histological examination of pancreatic islets [11]: significantly reduced insulitis | Plasma levels of pro-inflammatory cytokines [11]: significant reduction | Protection against vascular damage [12]: protects against the vascular damage | Parents reporting a reduction in their child's seizure frequency ([13]; 16 of 19 parents): 84% | Parents reporting greater than 80 percent reduction in seizure frequency ([13]; eight of 19 parents): 42% | Side effects ([13]; parent survey, children with epilepsy): drowsiness and fatigue | Parents reporting 25-60 percent seizure reduction ([13]; six of 19 parents): 32% | Parents reporting complete seizure freedom ([13]; two of 19 parents): 11% | Tolerability [14]: generally well-tolerated
